Twelve compounds from patent US10004701B2, “Methods and compositions for treating infection” (UNIVERSITY OF ROCHESTER, priority 2012, dated 2018) can be followed below.

Counter-ions that a name gives are not always drawn. Like-named read-outs stand apart in the source and are kept apart here.

Holding throughout (test): AK assay 384-well format, Prestwick library screening
One test relates to K. pneumoniae. It counts as cell-based, Klebsiella pneumoniae. The settings on record: 50 μM final drug concentration; for fold induction at 50 µM: Klebsiella pneumoniae, 3 h.
For another test, the system named is P. aeruginosa. It counts as cell-based, Pseudomonas aeruginosa. The settings on record: 50 μM final drug concentration; for fold induction at 50 µM: Pseudomonas aeruginosa, 3 h.
The subject of the next test is E. coli. It counts as cell-based, Escherichia coli. The settings on record: 50 μM final drug concentration; for fold induction at 50 µM: Escherichia coli, 3 h.
Test [1] deals with A. baumannii strain 98-37-09. It counts as cell-based, Acinetobacter baumannii. The settings on record: 50 μM final drug concentration; for fold induction at 50 µM: Acinetobacter baumannii, 983709, 3 h.
Another test deals with E. cloacae. It counts as cell-based, Enterobacter cloacae. The settings on record: 50 μM final drug concentration; for fold induction at 50 µM: Enterobacter cloacae, 3 h.
In the next test the test system is E. faecium. It counts as cell-based, Enterococcus faecium. The settings on record: 50 μM final drug concentration; for fold induction at 50 µM: Enterococcus faecium, 3 h.
For test [2], the system named is S. aureus strain USA300-0114. It counts as cell-based, Staphylococcus aureus. The settings on record: 50 μM final drug concentration; for fold induction at 50 µM: Staphylococcus aureus, USA300, 3 h.
The mark [3] stands for this setting: planktonic, cutoff for positive 3-fold increase.
[4] abbreviates: cutoff for positive-scoring molecules 3-fold increase.
The mark [5] stands for this setting: cutoff for positive-scoring molecules 3-fold increase, read-out: AK-based Prestwick Library Screening Results, K. pneumoniae (fold increase in extracellular AK activity).
[6] abbreviates: cutoff for positive-scoring molecules 3-fold increase, read-out: AK-based Prestwick Library Screening Results, P. aeruginosa (fold increase in extracellular AK activity).
Where [7] appears, read: cutoff for positive-scoring molecules 3-fold increase, read-out: AK-based Prestwick Library Screening Results, E. coli (fold increase in extracellular AK activity).
Where [8] appears, read: cutoff for positive-scoring molecules 3-fold increase, read-out: AK-based Prestwick Library Screening Results, A. baumannii (fold increase in extracellular AK activity).
Setting [9] is: cutoff for positive-scoring molecules 3-fold increase, read-out: AK-based Prestwick Library Screening Results, E. cloacae (fold increase in extracellular AK activity).
Setting [10] is: cutoff for positive-scoring molecules 3-fold increase, read-out: AK-based Prestwick Library Screening Results, E. faecium (fold increase in extracellular AK activity).
Setting [11] is: cutoff for positive-scoring molecules 3-fold increase, read-out: AK-based Prestwick Library Screening Results, S. aureus (fold increase in extracellular AK activity).
[12] abbreviates: planktonic K. pneumoniae, 384-well, cutoff for positive-scoring molecules 3-fold increase, read-out: AK-based Prestwick Library Screening Results: K. pneumoniae (increase in extracellular AK activity).
Setting [13] is: planktonic P. aeruginosa, 384-well, cutoff for positive-scoring molecules 3-fold increase, read-out: AK-based Prestwick Library Screening Results: P. aeruginosa (increase in extracellular AK activity).
Setting [14] is: planktonic E. coli, 384-well, cutoff for positive-scoring molecules 3-fold increase, read-out: AK-based Prestwick Library Screening Results: E. coli (increase in extracellular AK activity).
[15] abbreviates: planktonic A. baumannii, 384-well, cutoff for positive-scoring molecules 3-fold increase, read-out: AK-based Prestwick Library Screening Results: A. baumannii (increase in extracellular AK activity).
Setting [16] is: planktonic E. cloacae, 384-well, cutoff for positive-scoring molecules 3-fold increase, read-out: AK-based Prestwick Library Screening Results: E. cloacae (increase in extracellular AK activity).
[17] abbreviates: planktonic E. faecium, 384-well, cutoff for positive-scoring molecules 3-fold increase, read-out: AK-based Prestwick Library Screening Results: E. faecium (increase in extracellular AK activity).
[18] abbreviates: planktonic S. aureus, 384-well, cutoff for positive-scoring molecules 3-fold increase, read-out: AK-based Prestwick Library Screening Results: S. aureus (increase in extracellular AK activity).
The mark [19] stands for this setting: 384-well format, cutoff for positive-scoring molecules 3-fold increase, read-out: AK-based Prestwick Library Screening Results, K. pneumoniae (increase in extracellular AK activity).
The mark [20] stands for this setting: 384-well format, cutoff for positive-scoring molecules 3-fold increase, read-out: AK-based Prestwick Library Screening Results, P. aeruginosa (increase in extracellular AK activity).
Where [21] appears, read: 384-well format, cutoff for positive-scoring molecules 3-fold increase, read-out: AK-based Prestwick Library Screening Results, E. coli (increase in extracellular AK activity).
Where [22] appears, read: 384-well format, cutoff for positive-scoring molecules 3-fold increase, read-out: AK-based Prestwick Library Screening Results, A. baumannii (increase in extracellular AK activity).
The mark [23] stands for this setting: 384-well format, cutoff for positive-scoring molecules 3-fold increase, read-out: AK-based Prestwick Library Screening Results, E. cloacae (increase in extracellular AK activity).
[24] abbreviates: 384-well format, cutoff for positive-scoring molecules 3-fold increase, read-out: AK-based Prestwick Library Screening Results, E. faecium (increase in extracellular AK activity).
Where [25] appears, read: 384-well format, cutoff for positive-scoring molecules 3-fold increase, read-out: AK-based Prestwick Library Screening Results, S. aureus (increase in extracellular AK activity).

For `COc1ccc2c(c1OC)CN1CCc3cc4c(cc3C1C2)OCO4` (stereo not drawn) [(d,l)-Tetrahydroberberine], the “AK-based Prestwick Library Screening Results, K. pneumoniae (fold increase in extracellular AK activity)” value with K. pneumoniae (planktonic, […]) was found to be 0.7. In the test on P. aeruginosa (planktonic, […]), the “AK-based Prestwick Library Screening Results, P. aeruginosa (fold increase in extracellular AK activity)” value was 0.8. Moreover, the “AK-based Prestwick Library Screening Results, E. coli (fold increase in extracellular AK activity)” value in the test with E. coli (planktonic, […]) stood at 0.8. In addition, the “AK-based Prestwick Library Screening Results, A. baumannii (fold increase in extracellular AK activity)” value in test [1] (planktonic, […]) worked out at 0.9. Moreover, the “AK-based Prestwick Library Screening Results, E. cloacae (fold increase in extracellular AK activity)” value in the test on E. cloacae (planktonic, […]) is on record as 1.3. In addition, in the test with E. faecium (planktonic, […]), the “AK-based Prestwick Library Screening Results, E. faecium (fold increase in extracellular AK activity)” value was 0.9. Moreover, in test [2] (planktonic, […]), the “AK-based Prestwick Library Screening Results, S. aureus (fold increase in extracellular AK activity)” value is 0.7.
`C=C[C@H]1CN2CC[C@H]1C[C@H]2[C@H](O)c1ccnc2ccccc12` [(−)-Cinchonidine]: in the test on K. pneumoniae (setting [3]), the “AK-based Prestwick Library Screening Results, K. pneumoniae (fold increase in extracellular AK activity)” value came to 0.8. The “AK-based Prestwick Library Screening Results, P. aeruginosa (fold increase in extracellular AK activity)” value with P. aeruginosa (setting [3]) was found to be 1.1. The “AK-based Prestwick Library Screening Results, E. coli (fold increase in extracellular AK activity)” value with E. coli (setting [3]) was determined as 1.3. The “AK-based Prestwick Library Screening Results, A. baumannii (fold increase in extracellular AK activity)” value in test [1] (setting [3]) is 1.1. In addition, in the test on E. cloacae (setting [3]), the “AK-based Prestwick Library Screening Results, E. cloacae (fold increase in extracellular AK activity)” value is 1.6. Further, the “AK-based Prestwick Library Screening Results, E. faecium (fold increase in extracellular AK activity)” value in the test on E. faecium (setting [3]) was 1.0. Besides, the “AK-based Prestwick Library Screening Results, S. aureus (fold increase in extracellular AK activity)” value in test [2] (setting [3]) is given as 0.9.
For the compound `CC(C)(C)NC[C@H](O)COc1cccc2c1CCCC2=O.Cl` [(−)-Levobunolol hydrochloride], in the test with K. pneumoniae (setting [4]), the “AK-based Prestwick Library Screening Results, K. pneumoniae (fold increase in extracellular AK activity)” value worked out at 1.0. In the test on P. aeruginosa (setting [4]), the “AK-based Prestwick Library Screening Results, P. aeruginosa (fold increase in extracellular AK activity)” value came to 1.2. In addition, the “AK-based Prestwick Library Screening Results, E. coli (fold increase in extracellular AK activity)” value with E. coli (setting [4]) was found to be 1.3. Besides, the “AK-based Prestwick Library Screening Results, A. baumannii (fold increase in extracellular AK activity)” value in test [1] (setting [4]) is 1.0. Also, the “AK-based Prestwick Library Screening Results, E. cloacae (fold increase in extracellular AK activity)” value in the test with E. cloacae (setting [4]) is recorded as 1.9. The “AK-based Prestwick Library Screening Results, E. faecium (fold increase in extracellular AK activity)” value with E. faecium (setting [4]) stood at 1.0. Besides, the “AK-based Prestwick Library Screening Results, S. aureus (fold increase in extracellular AK activity)” value in test [2] (setting [4]) is 1.0.
As for `COc1ccc(-c2cc(=O)c3c(O)cc(O)cc3o2)cc1` [Acacetin], the fold induction at 50 µM with K. pneumoniae (setting [5]) was determined as 0.6; with P. aeruginosa (setting [6]), 0.6; with E. coli (setting [7]), 0.7; in test [1] (setting [8]) it was 0.3; with E. cloacae (setting [9]), 1.6; in the test on E. faecium (setting [10]) it was 0.5. Moreover, the fold induction at 50 µM in test [2] (setting [11]) is 0.7.
Consider `CCCC(=O)Nc1ccc(OCC(O)CNC(C)C)c(C(C)=O)c1` (stereo not drawn) [Acebutolol hydrochloride], for which the fold induction at 50 µM with K. pneumoniae (setting [12]) stood at 0.9; with P. aeruginosa (setting [13]), 1.1; in the test on E. coli (setting [14]) it was 1.3; in test [1] (setting [15]), 1.3; in the test on E. cloacae (setting [16]) it was 1.2; in the test on E. faecium (setting [17]), 1.1. In addition, the fold induction at 50 µM in test [2] (setting [18]) was determined as 1.1.
In the case of `O=C(O)COC(=O)Cc1ccccc1Nc1c(Cl)cccc1Cl` [Aceclofenac], the fold induction at 50 µM in the test with K. pneumoniae (setting [19]) was found to be 0.6; in the test with P. aeruginosa (setting [20]), 0.8; in the test with E. coli (setting [21]), 0.7; in test [1] (setting [22]) it was 0.7; in the test with E. cloacae (setting [23]), 0.8; in the test with E. faecium (setting [24]), 1. Besides, the fold induction at 50 µM in test [2] (setting [25]) worked out at 0.7.
With `COc1ccc2c(c1)c(CC(=O)OCC(=O)O)c(C)n2C(=O)c1ccc(Cl)cc1` [Acemetacin], the fold induction at 50 µM in the test with K. pneumoniae (setting [12]) was determined as 0.9; in the test on P. aeruginosa (setting [13]), 1.1; with E. coli (setting [14]) it was 1.2; in test [1] (setting [15]), 1.1; in the test with E. cloacae (setting [16]), 1.3; with E. faecium (setting [17]), 1. Moreover, the fold induction at 50 µM in test [2] (setting [18]) is 1.1.
For `CC(=O)CC(c1ccc([N+](=O)[O-])cc1)c1c(O)c2ccccc2oc1=O` (stereo not drawn) [Acenocoumarol], the fold induction at 50 µM in the test on K. pneumoniae (setting [19]) was determined as 0.7; in the test with P. aeruginosa (setting [20]), 0.9; in the test with E. coli (setting [21]), 0.9; in test [1] (setting [22]) it was 0.8; in the test on E. cloacae (setting [23]), 0.9; with E. faecium (setting [24]) it was 1. In addition, the fold induction at 50 µM in test [2] (setting [25]) came to 0.8.
Consider `CC(=O)Nc1ccc(O)cc1` [Acetaminophen], for which the fold induction at 50 µM stood at 1.2 in the test on K. pneumoniae (setting [5]); 1.1 with P. aeruginosa (setting [6]); 1.4 in the test on E. coli (setting [7]); 1.5 in test [1] (setting [8]); 1.6 in the test on E. cloacae (setting [9]); 1 in the test with E. faecium (setting [10]). Also, in test [2] (setting [11]), the fold induction at 50 µM came to 1.6.
For `CC(=O)Nc1nnc(S(N)(=O)=O)s1` [Acetazolamide], the fold induction at 50 µM turned out to be 0.4 in the test with K. pneumoniae (setting [19]); 0.3 with P. aeruginosa (setting [20]); 0.4 with E. coli (setting [21]); 0.4 in test [1] (setting [22]); 0.3 with E. cloacae (setting [23]); 0.9 in the test on E. faecium (setting [24]). The fold induction at 50 µM in test [2] (setting [25]) came out at 0.4.
Regarding `CC(=O)c1ccc(S(=O)(=O)NC(=O)NC2CCCCC2)cc1` [Acetohexamide], the fold induction at 50 µM with K. pneumoniae (setting [12]) came to 0.8; with P. aeruginosa (setting [13]), 1.2; with E. coli (setting [14]), 1.2; in test [1] (setting [15]), 1.1; in the test on E. cloacae (setting [16]), 1.7; in the test with E. faecium (setting [17]), 0.9. For the same compound, in test [2] (setting [18]), the fold induction at 50 µM came to 1.1.
Take `CC(=O)c1ccc2c(c1)N(CCCN(C)C)c1ccccc1S2.O=C(O)/C=C\C(=O)O` [Acetopromazine maleate salt]: in the test on K. pneumoniae (planktonic K. pneumoniae, cutoff for positive-scoring molecules 3-fold increase), the “AK-based Prestwick Library Screening Results, K. pneumoniae (increase in extracellular AK activity)” value is given as 0.6. In the test with P. aeruginosa (planktonic P. aeruginosa, cutoff for positive-scoring molecules 3-fold increase), the “AK-based Prestwick Library Screening Results, P. aeruginosa (increase in extracellular AK activity)” value is given as 0.7. Further, in the test with E. coli (planktonic E. coli, cutoff for positive-scoring molecules 3-fold increase), the “AK-based Prestwick Library Screening Results, E. coli (increase in extracellular AK activity)” value is 0.8. Moreover, the “AK-based Prestwick Library Screening Results, A. baumannii (increase in extracellular AK activity)” value in test [1] (planktonic A. baumannii, cutoff for positive-scoring molecules 3-fold increase) is recorded as 0.8. Besides, the “AK-based Prestwick Library Screening Results, E. cloacae (increase in extracellular AK activity)” value with E. cloacae (planktonic E. cloacae, cutoff for positive-scoring molecules 3-fold increase) turned out to be 0.8. Moreover, the “AK-based Prestwick Library Screening Results, E. faecium (increase in extracellular AK activity)” value with E. faecium (planktonic E. faecium, cutoff for positive-scoring molecules 3-fold increase) is recorded as 1.0. In test [2] (planktonic S. aureus, cutoff for positive-scoring molecules 3-fold increase), the “AK-based Prestwick Library Screening Results, S. aureus (increase in extracellular AK activity)” value is 0.8.
